Assay results from US10195185B2, “3-(1H-imidazo[4,5-C]pyridin-2-yl)-1H-pyrazolo[4,3-B]pyridines and therapeutic uses thereof” (Samumed, LLC, priority 2015, dated 2019).
pEC50: −log10 of the molar value. Values belong to the compound of their own block, whether it stands above or below them.

Experiments:
[1] = system: Primary human fibroblasts derived from IPF patients (LL29 cells) treated with TGF-β1; test: Inhibition of the fibrotic process: αSMA staining in TGF-β1 treated fibroblasts; assay type: cell-based; details: Fibroblast, 96 h, LL29 fibroblasts treated with TGF-β1, 4 days; for inhibition at 10 µM: read-out: percent inhibition in brackets beside EC50 >10 μM
Summary of the method: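 EC50 values come from non-linear fits of the αSMA-positive percentage among SYTOX-excluded live cells, normalized to TGF-β1 plus DMSO controls, or appear as % inhibition at 10 μM when above 10 μM. Fibrosis was induced in IPF-derived LL29 fibroblasts by 20 ng/mL TGF-β1 over 4 days, with 1:2 compound dilutions from 10 μM.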

[2] = system: IL-6 in human monocyte cell line (THP-1 cells); test: IL-6 inhibition in LPS-stimulated THP-1 cells (HTRF); assay type: cell-based; details: IL-6 in LPS-stimulated THP-1 cells; for pEC50: HTRF; for inhibition at 10 µM: read-out: percent inhibition in brackets beside EC50 >10 μM
Summary of the method: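 Readout is the 665/620 nm HTRF ratio for secreted IL-6, normalized to DMSO wells, with EC50 from a variable-slope four-parameter fit, or % inhibition at 10 μM when above 10 μM. Cells (1% FBS, 24 h beforehand) got compound for 2 h, then LPS 500 ng/mL for 22 h at 37° C; top dose 10 μM, 0.1% DMSO.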

SMILES: Cc1ncc(-c2ccc3[nH]nc(-c4nc5c(-c6cccc(F)c6)nccc5[nH]4)c3n2)s1 [Compound 1126, 5-(3-(4-(3-Fluorophenyl)-1H-imidazo[4,5-c]pyridin-2-yl)-1H-pyrazolo[4,3-b]pyridin-5-yl)-2-methylthiazole]
- pEC50 [1]: 6.69
- pEC50 [2]: < 5.00
- inhibition at 10 µM [2]: 0%

SMILES: CC(C)(C)CC(=O)Nc1cncc(-c2ccc3[nH]nc(-c4nc5c(-c6ccccc6F)nccc5[nH]4)c3n2)c1 [Compound 72, N-(5-(3-(4-(2-fluorophenyl)-1H-imidazo[4,5-c]pyridin-2-yl)-1H-pyrazolo [4,3-b]pyridin-5-yl)pyridin-3-yl)-3,3-dimethylbutanamide]
- pEC50 [1]: < 5.00
- inhibition at 10 µM [1]: 0%
- pEC50 [2]: < 5.00
- inhibition at 10 µM [2]: 26.1%

SMILES: O=C(Cc1ccccc1)Nc1cncc(-c2ccc3[nH]nc(-c4nc5c(-c6ccncc6)nccc5[nH]4)c3n2)c1 [Compound 122, 2-phenyl-N-(5-(3-(4-(pyridin-4-yl)-1H-imidazo[4,5-c]pyridin-2-yl)-1H-pyrazolo[4,3-b]pyridin-5-yl)pyridin-3-yl)acetamide]
- pEC50 [1]: < 5.00
- inhibition at 10 µM [1]: 0%
- pEC50 [2]: 5.91

SMILES: Cn1cc(-c2ccc3[nH]nc(-c4nc5c(-c6ccc(F)cc6)nccc5[nH]4)c3n2)c(CO)n1 [Compound 1128, (4-(3-(4-(4-Fluorophenyl)-1H-imidazo[4,5-c]pyridin-2-yl)-1H-pyrazolo[4,3-b]pyridin-5-yl)-1-methyl-1H-pyrazol-3-yl)methanol]
- pEC50 [1]: 5.57
- pEC50 [2]: < 5.00
- inhibition at 10 µM [2]: 0%

SMILES: CN(C)CCNc1cc(F)cc(-c2nccc3[nH]c(-c4n[nH]c5ccc(-c6cncc(OCCN7CCCC7)c6)nc45)nc23)c1 [Compound 786, N^1-(3-Fluoro-5-(2-(5-(5-(2-(pyrrolidin-1-yl)ethoxy)pyridin-3-yl)-1H-pyrazolo[4,3-b]pyridin-3-yl)-1H-imidazo[4,5-c]pyridin-4-yl)-5phenyl)-N^2,N^2-dimethylethane-1,2-diamine]
- pEC50 [1]: < 5.00
- inhibition at 10 µM [1]: 0%
- pEC50 [2]: 5.14

SMILES: Cc1ccncc1-c1ccc2[nH]nc(-c3nc4c(-c5ccsc5)nccc4[nH]3)c2n1 [Compound 285, 5-(4-Methylpyridin-3-yl)-3-(4-(thiophen-3-yl)-1H-imidazo[4,5-c]pyridin-2-yl)-1H-pyrazolo[4,3-b]pyridine]
- pEC50 [1]: 6.31
- pEC50 [2]: 5.87

SMILES: O=C(Nc1cncc(-c2ccc3[nH]nc(-c4nc5c(-c6ccccc6F)nccc5[nH]4)c3n2)c1)C1CCCC1 [Compound 78, N-(5-(3-(4-(2-Fluorophenyl)-1H-imidazo[4,5-c]pyridin-2-yl)-1H-pyrazolo [4,3-b]pyridin-5-yl)pyridin-3-yl)cyclopentanecarboxamide]
- pEC50 [1]: < 5.00
- inhibition at 10 µM [1]: 0%
- pEC50 [2]: < 5.00
- inhibition at 10 µM [2]: 29.7%

SMILES: Cn1cc(-c2ccc3[nH]nc(-c4nc5c(-c6cc(F)cc(CNS(C)(=O)=O)c6)nccc5[nH]4)c3n2)cn1 [Compound 764, N-(3-Fluoro-5-(2-(5-(1-methyl-1H-pyrazol-4-yl)-1H-pyrazolo [4,3-b]pyridin-3-yl)-1H-imidazo[4,5-c]pyridin-4-yl)benzyl)methanesulfonamide]
- pEC50 [1]: 5.97
- pEC50 [2]: < 5.00
- inhibition at 10 µM [2]: 0%

SMILES: CCC(=O)Nc1cncc(-c2ccc3[nH]nc(-c4nc5c(-c6cccs6)nccc5[nH]4)c3n2)c1 [Compound 337, N-(5-(3-(4-(Thiophen-2-yl)-1H-imidazo[4,5-c]pyridin-2-yl)-1H-pyrazolo [4,3-b]pyridin-5-yl)pyridin-3-yl)propionamide]
- pEC50 [1]: 5.96
- pEC50 [2]: < 5.00
- inhibition at 10 µM [2]: 0%

SMILES: CC(C)C(=O)Nc1cncc(-c2ccc3[nH]nc(-c4nc5c(-c6cccnc6)nccc5[nH]4)c3n2)c1 [Compound 93, N-(5-(3-(4-(Pyridin-3-yl)-1H-imidazo[4,5-c]pyridin-2-yl)-1H-pyrazolo[4,3-b]pyridin-5-yl)pyridin-3-yl)isobutyramide]
- pEC50 [1]: 5.70
- pEC50 [2]: < 5.00
- inhibition at 10 µM [2]: 25.1%

SMILES: CCNCc1cncc(-c2ccc3[nH]nc(-c4nc5c(-c6ccccn6)nccc5[nH]4)c3n2)c1 [Compound 146, N-((5-(3-(4-(Pyridin-2-yl)-1H-imidazo[4,5-c]pyridin-2-yl)-1H-pyrazolo[4,3-b]pyridin-5-yl)pyridin-3-yl)methyl)ethanamine]
- pEC50 [1]: 5.98
- pEC50 [2]: < 5.00
- inhibition at 10 µM [2]: 6.7%

The next lines start with results.

- pEC50 [2]: < 5.00
SMILES: Cc1cn(-c2nccc3[nH]c(-c4n[nH]c5ccc(-c6cncc(NC(=O)C(C)(C)C)c6)nc45)nc23)cn1 [Compound 204, N-(5-(3-(4-(4-Methyl-1H-imidazol-1-yl)-1H-imidazo[4,5-c]pyridin-2-yl)-1H-pyrazolo[4,3-b]pyridin-5-yl)pyridin-3-yl)pivalamide]
- pEC50 [1]: < 5.00
- inhibition at 10 µM [1]: 8.1%
- inhibition at 10 µM [2]: 41.8%

- pEC50 [2]: < 5.00
SMILES: CC(C)CC(=O)Nc1cncc(-c2ccc3[nH]nc(-c4nc5c(-c6ccc(Cl)s6)nccc5[nH]4)c3n2)c1 [Compound 1037, N-(5-(3-(4-(5-Chlorothiophen-2-yl)-1H-imidazo[4,5-c]pyridin-2-yl)-1H-pyrazolo [4,3-b]pyridin-5-yl)pyridin-3-yl)-3-methylbutanamide]
- pEC50 [1]: 6.11
- inhibition at 10 µM [2]: 18.1%

- pEC50 [2]: < 5.00
SMILES: CN(C)CCNc1cc(F)cc(-c2nccc3[nH]c(-c4n[nH]c5ccc(-c6cnccn6)nc45)nc23)c1 [Compound 792, N^1-(3-Fluoro-5-(2-(5-(pyrazin-2-yl)-1H-pyrazolo[4,3-b]pyridin-3-yl)-1H-imidazo[4,5-c]pyridin-4-yl)phenyl)-N^2,N^2-dimethylethane-1,2-diamine]
- pEC50 [1]: < 5.00
- inhibition at 10 µM [1]: 0%
- inhibition at 10 µM [2]: 32.6%

- pEC50 [2]: < 5.00
SMILES: Cc1cn(-c2nccc3[nH]c(-c4n[nH]c5ccc(-c6cncc(NC(=O)CC(C)C)c6)nc45)nc23)cn1 [Compound 198]
- pEC50 [1]: < 5.00
- inhibition at 10 µM [1]: 4.5%
- inhibition at 10 µM [2]: 25.2%

- pEC50 [2]: < 5.00
SMILES: CN(C)CC(=O)Nc1cncc(-c2ccc3[nH]nc(-c4nc5c(-c6cccc(F)c6)nccc5[nH]4)c3n2)c1 [Compound 969, 2-(Dimethylamino)-N-(5-(3-(4-(3-fluorophenyl)-1H-imidazo[4,5-c]pyridin-2-yl)-1H-pyrazolo[4,3-b]pyridin-5-yl)pyridin-3-yl)acetamide]
- pEC50 [1]: 5.79
- inhibition at 10 µM [2]: 31.8%

- pEC50 [2]: < 5.00
SMILES: Nc1cncc(-c2ccc3[nH]nc(-c4nc5c(-c6ccccc6F)nccc5[nH]4)c3n2)c1 [Compound 59, 5-(3-(4-(2-Fluorophenyl)-1H-imidazo[4,5-c]pyridin-2-yl)-1H-pyrazolo[4,3-b]pyridin-5-yl)pyridin-3-amine]
- pEC50 [1]: < 5.00
- inhibition at 10 µM [1]: 0%
- inhibition at 10 µM [2]: 30.6%
